From patent publication US11078216B2, “Bisaryl amides as NRF2 activators” (GLAXOSMITHKLINE INTELLECTUAL PROPERTY DEVELOPMENT LIMITED, priority 2016, dated 2021)

System: NRF2 (NQO1 activity as marker for NRF2 activation), BEAS-2B cells
Experiment: BEAS-2B NQO1 MTT Assay
Assay type: cell-based
Conditions: Homo sapiens, EC50 of NQO1 specific activity induction, 48 hours incubation, read-out: EC50
Summary of the method: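 As a marker of NRF2 activation, NQO1 specific activity was read from the rate of absorbance change at 570 nm in MTT cocktail over 30 minutes. Lysates came from BEAS-2B cells treated for 48 hours at 37° C, and EC50 was derived by 3-parameter fitting.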

`CC[C@@H]1CN(Cc2cc([C@@H](c3ccc4c(nnn4CC)c3C)C(C)(C)NC(=O)c3cnc(N4CCOCC4)nc3)ccc2C)S(=O)(=O)c2ccccc2O1` [Example 164, N-((S)-1-(3-(((R)-4-Ethyl-1,1-dioxido-3,4-dihydro-2H-benzo[b][1,4,5]oxathiazepin-2-yl)methyl)-4-methylphenyl)-1-(1-ethyl-4-methyl-1H-benzo[d][1,2,3]triazol-5-yl)-2-methylpropan-2-yl)-2-morpholinopyrimidine-5-carboxamide] showed an EC50 of 10 to 100 nM.
`CC[C@@H]1CN(Cc2cc([C@@H](c3ccc4c(nnn4CC)c3C)C(C)(C)NC(=O)c3cnc(N4CCN(C)CC4)nc3)ccc2C)S(=O)(=O)c2ccccc2O1` [Example 165, N-((S)-1-(3-(((R)-4-Ethyl-1,1-dioxido-3,4-dihydro-2H-benzo[b][1,4,5]oxathiazepin-2-yl)methyl)-4-methylphenyl)-1-(1-ethyl-4-methyl-1H-benzo[d][1,2,3]triazol-5-yl)-2-methylpropan-2-yl)-2-(4-methylpiperazin-1-yl)pyrimidine-5-carboxamide] was tested, and the EC50 was 10 to 100 nM.
For `CC[C@@H]1CN(Cc2cc([C@@H](c3ccc4c(nnn4CC)c3C)C(C)(C)NC(=O)c3cccnc3)ccc2C)S(=O)(=O)c2cccnc2O1` [Example 166, N—((S)-1-(3-(((R)-4-Ethyl-1,1-dioxido-3,4-dihydro-2H-pyrido[2,3-b][1,4,5]oxathiazepin-2-yl)methyl)-4-methylphenyl)-1-(1-ethyl-4-methyl-1H-benzo[d][1,2,3]triazol-5-yl)-2-methylpropan-2-yl)nicotinamide], the EC50 was 1 to 10 nM.
Work on `CC[C@@H]1CN(Cc2cc([C@@H](c3ccc4c(nnn4CC)c3C)C(C)(C)N(C)C(=O)c3cncnc3)ccc2C)S(=O)(=O)c2ccccc2O1` [Example 167, N—((S)-1-(3-(((R)-4-Ethyl-1,1-dioxido-3,4-dihydro-2H-benzo[b][1,4,5]oxathiazepin-2-yl)methyl)-4-methylphenyl)-1-(1-ethyl-4-methyl-1H-benzo[d][1,2,3]triazol-5-yl)-2-methylpropan-2-yl)-N-methylpyrimidine-5-carboxamide] yielded an EC50 of 10 to 100 nM.
With `CC[C@@H]1CN(Cc2cc([C@H](CC(=O)N(C)c3cccnc3)c3ccc4c(nnn4CC)c3C)ccc2C)S(=O)(=O)c2cccnc2O1` [Example 169, (S)-3-(3-(((R)-4-ethyl-1,1-dioxido-3,4-dihydro-2H-pyrido[2,3-b][1,4,5]oxathiazepin-2-yl)methyl)-4-methylphenyl)-3-(1-ethyl-4-methyl-1H-benzo[d][1,2,3]triazol-5-yl)-N-methyl-N-(pyridin-3-yl)propanamide] the EC50 was 100 to 1000 nM.
In the case of `CC[C@@H]1CN(Cc2cc([C@H](CC(=O)Nc3ccccc3)c3ccc4c(nnn4CC)c3C)ccc2C)S(=O)(=O)c2cccnc2O1` [Example 170, (S)-3-(3-(((R)-4-ethyl-1,1-dioxido-3,4-dihydro-2H-pyrido[2,3-b][1,4,5]oxathiazepin-2-yl)methyl)-4-methylphenyl)-3-(1-ethyl-4-methyl-1H-benzo[d][1,2,3]triazol-5-yl)-N-phenylpropanamide], the EC50 is reported as 100 to 1000 nM.
In the case of `CC[C@@H]1CN(Cc2cc([C@H](CC(=O)NC3CCCC3)c3ccc4c(nnn4CC)c3C)ccc2C)S(=O)(=O)c2cccnc2O1` [Example 171, (S)-N-cyclopentyl-3-(3-(((R)-4-ethyl-1,1-dioxido-3,4-dihydro-2H-pyrido[2,3-b][1,4,5]oxathiazepin-2-yl)methyl)-4-methylphenyl)-3-(1-ethyl-4-methyl-1H-benzo[d][1,2,3]triazol-5-yl)propanamide], the EC50 is reported as 100 to 1000 nM.
`CC[C@@H]1CN(Cc2cc([C@H](CC(=O)Nc3ccc(OC)nc3)c3ccc4c(nnn4CC)c3C)ccc2C)S(=O)(=O)c2cccnc2O1` [Example 172, (S)-3-(3-(((R)-4-ethyl-1,1-dioxido-3,4-dihydro-2H-pyrido[2,3-b][1,4,5]oxathiazepin-2-yl)methyl)-4-methylphenyl)-3-(1-ethyl-4-methyl-1H-benzo[d][1,2,3]triazol-5-yl)-N-(6-methoxypyridin-3-yl)propanamide] showed an EC50 of 100 to 1000 nM.
